ChEMBL document CHEMBL1157598, “Direct determination of the insulin-insulin receptor interface using transferred cross-saturation experiments” (J Med Chem, 2010)

What was measured:
[1] = target: Insulin receptor (Homo sapiens) (UniProt P06213); assay: Displacement of [125I]insulin from insulin receptor chimera fused with Fc-region of IgG at 100 uM by scintillation proximity assay
[2] = target: Insulin receptor (Homo sapiens) (UniProt P06213); assay: Displacement of [125I]insulin from insulin receptor chimera fused with Fc-region of IgG at 300 uM by scintillation proximity assay

Insulin receptor (Homo sapiens), sequence (P06213 28-758 limits assumed): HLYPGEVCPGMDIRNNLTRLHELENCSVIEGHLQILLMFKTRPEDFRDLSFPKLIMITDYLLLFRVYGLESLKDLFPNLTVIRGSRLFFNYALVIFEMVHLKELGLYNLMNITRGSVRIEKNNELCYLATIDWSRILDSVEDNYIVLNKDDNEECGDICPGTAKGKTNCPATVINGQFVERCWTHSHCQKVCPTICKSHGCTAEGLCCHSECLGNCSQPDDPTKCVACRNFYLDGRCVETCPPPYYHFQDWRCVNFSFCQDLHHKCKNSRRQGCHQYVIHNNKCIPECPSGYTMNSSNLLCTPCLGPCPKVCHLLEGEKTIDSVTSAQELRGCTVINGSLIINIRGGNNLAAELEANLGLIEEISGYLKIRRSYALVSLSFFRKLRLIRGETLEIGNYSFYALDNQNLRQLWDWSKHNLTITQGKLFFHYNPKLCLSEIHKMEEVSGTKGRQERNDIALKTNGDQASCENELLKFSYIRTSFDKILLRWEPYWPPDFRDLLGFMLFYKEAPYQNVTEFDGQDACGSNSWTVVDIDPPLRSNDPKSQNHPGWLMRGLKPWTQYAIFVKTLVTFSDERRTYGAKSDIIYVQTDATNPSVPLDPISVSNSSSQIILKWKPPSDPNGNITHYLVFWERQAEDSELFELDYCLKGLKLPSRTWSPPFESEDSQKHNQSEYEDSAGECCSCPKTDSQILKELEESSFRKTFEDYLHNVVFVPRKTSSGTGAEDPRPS
Insulin receptor (Homo sapiens), sequence (P06213 763-1382 limits assumed): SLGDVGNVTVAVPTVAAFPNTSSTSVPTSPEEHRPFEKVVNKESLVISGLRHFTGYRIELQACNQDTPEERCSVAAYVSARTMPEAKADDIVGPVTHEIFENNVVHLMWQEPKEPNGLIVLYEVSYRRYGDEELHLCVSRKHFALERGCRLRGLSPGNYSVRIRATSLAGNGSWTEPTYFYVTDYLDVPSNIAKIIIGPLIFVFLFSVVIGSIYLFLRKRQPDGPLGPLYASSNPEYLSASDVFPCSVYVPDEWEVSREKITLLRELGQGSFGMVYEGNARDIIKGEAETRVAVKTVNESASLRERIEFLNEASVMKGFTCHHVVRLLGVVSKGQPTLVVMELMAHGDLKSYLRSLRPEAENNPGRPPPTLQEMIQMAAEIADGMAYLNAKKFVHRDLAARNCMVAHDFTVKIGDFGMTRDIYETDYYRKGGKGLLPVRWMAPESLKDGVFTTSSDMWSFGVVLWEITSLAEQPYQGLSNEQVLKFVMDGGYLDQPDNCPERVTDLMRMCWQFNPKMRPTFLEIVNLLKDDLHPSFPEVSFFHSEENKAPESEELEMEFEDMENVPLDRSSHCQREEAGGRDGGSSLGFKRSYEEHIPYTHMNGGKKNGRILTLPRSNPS

Activity [1]: 69%
Activity [2]: 49%
Compound: O=C(CSc1nnc(Nc2ccccc2F)s1)c1ccc(OC(F)F)cc1
